This note sets out measurements from US7214690B2, “Tricyclic quinolinone and tricyclic quinoline androgen receptor modulator compounds and methods” (Ligand Pharmaceuticals Incorporated, priority 2001, dated 2007).

Like-named read-outs stand apart in the source and are kept apart here.

Holding throughout (type): cell-based
One experiment concerns the target T1, human AR (Homo sapiens, UniProt P10275).
T1 construct: expressed in transfected cells; host or cells: CV-1 cells (African green monkey kidney fibroblasts)
T1 sequence (P10275 1-920): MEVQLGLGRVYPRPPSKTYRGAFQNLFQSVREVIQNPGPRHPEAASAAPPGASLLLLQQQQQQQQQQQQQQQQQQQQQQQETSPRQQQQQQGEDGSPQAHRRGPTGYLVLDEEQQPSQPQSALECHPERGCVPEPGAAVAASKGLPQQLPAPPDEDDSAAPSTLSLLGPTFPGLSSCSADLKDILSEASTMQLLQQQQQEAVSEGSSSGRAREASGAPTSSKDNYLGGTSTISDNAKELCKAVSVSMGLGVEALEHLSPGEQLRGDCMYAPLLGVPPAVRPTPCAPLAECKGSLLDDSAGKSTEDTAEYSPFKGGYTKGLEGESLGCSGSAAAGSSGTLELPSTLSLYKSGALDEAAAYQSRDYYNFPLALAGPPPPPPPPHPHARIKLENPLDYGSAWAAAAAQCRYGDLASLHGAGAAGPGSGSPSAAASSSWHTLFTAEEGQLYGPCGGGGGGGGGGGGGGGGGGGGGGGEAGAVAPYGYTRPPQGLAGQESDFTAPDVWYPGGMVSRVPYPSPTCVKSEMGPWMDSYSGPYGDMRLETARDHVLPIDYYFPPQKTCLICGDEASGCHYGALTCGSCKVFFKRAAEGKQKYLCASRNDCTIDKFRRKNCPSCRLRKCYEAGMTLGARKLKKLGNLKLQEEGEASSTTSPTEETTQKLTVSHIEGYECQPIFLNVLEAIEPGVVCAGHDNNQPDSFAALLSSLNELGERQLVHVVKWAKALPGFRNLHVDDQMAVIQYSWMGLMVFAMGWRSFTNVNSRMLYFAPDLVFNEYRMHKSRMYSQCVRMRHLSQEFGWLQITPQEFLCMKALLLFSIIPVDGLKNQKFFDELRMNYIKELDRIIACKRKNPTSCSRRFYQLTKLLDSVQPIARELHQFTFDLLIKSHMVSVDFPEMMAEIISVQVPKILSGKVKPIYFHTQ
As to the kind of experiment: co-transfection assay, hAR in CV-1 cells (MTV-LUC reporter). The text has this: The co-transfection assay provides a method for identifying functional agonists and partial agonists that mimic, or antagonists that inhibit, the effect of native hormones and quantifying their activity for responsive IR proteins. In this regard, the co-transfection assay mimics an in vivo system in the laboratory. Importantly, activity in the co-transfection assay correlates very well with known in vivo activity, such that the co-transfection assay functions as a qualitative and quantitative predictor of a tested compounds in vivo pharmacology. , See e.g., T. Berger et al. 41 J. Steroid Biochem. Molec.
(§1) CV-1 cells (African green monkey kidney fibroblasts) were cultured in the presence of Dulbecco's Modified Eagle Medium (DMEM) supplemented with 10% charcoal resin-stripped fetal bovine serum (CH-FBS) then transferred to 96-well microtiter plates one day prior to transfection.
The reporter plasmid, MTV-LUC, contains the cDNA for firefly luciferase (LUC) under control of the mouse mammary tumor virus (MTV) long terminal repeat, a conditional promoter containing an androgen response element. See e.g., Berger et al. supra. In addition, pRS-β-Gal, coding for constitutive expression of E. coli β-galactosidase (β-Gal), was included as an internal control for evaluation of transfection efficiency and compound toxicity.
(§2) Three to four replicates were used for each sample.
(§3) After 40 hours, the cells were washed with PBS, lysed with a Triton X-100-based buffer and assayed for LUC and β-Gal activities using a luminometer or spectrophotometer, respectively. For each replicate, the normalized response (NR) was calculated as: LUC response/β-Gal rate • where β-Gal rate=β-Gal/β-Gal incubation time.

For a further experiment, the target named is T2, ER (Homo sapiens, UniProt P03372).
T2 construct: expressed in transfected cells; host or cells: background cell substantially devoid of endogenous IRs (CV-1 described for the co-transfection assay)
T2 sequence (P03372 1-595): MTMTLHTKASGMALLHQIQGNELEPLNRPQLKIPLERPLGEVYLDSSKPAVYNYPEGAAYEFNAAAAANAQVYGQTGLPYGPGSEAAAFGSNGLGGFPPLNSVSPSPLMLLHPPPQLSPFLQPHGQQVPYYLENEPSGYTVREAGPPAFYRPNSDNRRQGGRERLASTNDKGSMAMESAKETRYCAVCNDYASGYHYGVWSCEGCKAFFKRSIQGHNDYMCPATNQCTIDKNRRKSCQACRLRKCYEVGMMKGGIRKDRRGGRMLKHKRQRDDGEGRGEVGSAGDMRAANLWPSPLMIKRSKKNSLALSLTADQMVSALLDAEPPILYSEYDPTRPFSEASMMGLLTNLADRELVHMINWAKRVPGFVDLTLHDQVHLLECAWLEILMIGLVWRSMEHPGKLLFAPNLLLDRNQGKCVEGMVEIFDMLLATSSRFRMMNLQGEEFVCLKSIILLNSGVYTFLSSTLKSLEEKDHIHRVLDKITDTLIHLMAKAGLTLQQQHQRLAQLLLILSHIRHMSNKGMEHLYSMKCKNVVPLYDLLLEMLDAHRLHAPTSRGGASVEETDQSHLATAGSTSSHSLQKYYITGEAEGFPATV
Kind of experiment: co-transfection assay, ER. The method, then:
as §1, §2, §3

Another experiment deals with T3, GR (Homo sapiens, UniProt P04150).
T3 construct: expressed in transfected cells; host or cells: background cell substantially devoid of endogenous IRs (CV-1 described for the co-transfection assay)
T3 sequence (P04150 1-777): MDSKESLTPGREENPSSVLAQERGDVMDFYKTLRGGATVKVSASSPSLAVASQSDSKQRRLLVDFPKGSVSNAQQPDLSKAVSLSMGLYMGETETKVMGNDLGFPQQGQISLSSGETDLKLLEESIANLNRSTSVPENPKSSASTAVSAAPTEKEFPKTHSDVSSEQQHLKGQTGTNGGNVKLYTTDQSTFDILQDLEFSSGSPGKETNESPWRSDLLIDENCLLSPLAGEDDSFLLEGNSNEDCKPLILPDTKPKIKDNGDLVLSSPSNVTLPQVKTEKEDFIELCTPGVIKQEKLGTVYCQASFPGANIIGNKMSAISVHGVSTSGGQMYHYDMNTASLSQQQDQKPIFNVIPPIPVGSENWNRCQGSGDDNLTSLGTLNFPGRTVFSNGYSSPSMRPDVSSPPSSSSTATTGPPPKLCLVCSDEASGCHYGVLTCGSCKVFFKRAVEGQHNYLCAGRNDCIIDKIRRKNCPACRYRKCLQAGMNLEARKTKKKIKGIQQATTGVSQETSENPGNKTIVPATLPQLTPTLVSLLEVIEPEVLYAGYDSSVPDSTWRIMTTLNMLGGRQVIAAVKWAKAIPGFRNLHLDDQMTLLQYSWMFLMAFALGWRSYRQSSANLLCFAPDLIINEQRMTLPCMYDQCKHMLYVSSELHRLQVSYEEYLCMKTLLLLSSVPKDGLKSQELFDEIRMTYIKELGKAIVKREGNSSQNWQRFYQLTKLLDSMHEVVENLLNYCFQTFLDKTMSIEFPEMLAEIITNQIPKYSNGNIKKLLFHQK
As to the kind of experiment: co-transfection assay, GR. The method, then: as §1, §2, §3

Setting [1] is: agonist mode, luciferase production relative to DHT, hAR in CV-1 cells.
Where [2] appears, read: antagonist mode, maximal inhibition of DHT-induced luciferase production, hAR in CV-1 cells.
[3] abbreviates: read-out: AR-wt Potency Antag, antagonist mode, Table 2.

As for `C=CCN1c2ccc3[nH]c(=O)cc(C(F)(F)F)c3c2OC[C@H]1CC` [Compound 114, (3R)-4-Allyl-3-ethyl-2,3,4,7-tetrahydro-10-(trifluoromethyl)-8H-[1,4]oxazino[2,3-f]quinolin-8-one], the concentration for a half-maximal effect (EC50) at human AR was 0.053 µM; at ER, above 10 µM. Also, the “AR Agonist CV-1 Cells Efficacy” value at human AR (setting [1]) is reported as 74%. Also, the “AR Antagonist CV-1 Cells Efficacy” value on human AR (setting [2]) was “na (not active (i.e. efficacy of <20 and potency of >10,000 nM for the cotransfection assay)”. Moreover, the IC50 at human AR (setting [3]) was above 10 µM; against ER, above 10 µM; against GR, 5.9 µM.

In the case of `CC(C)[C@@H]1COc2c(ccc3[nH]c(=O)cc(C(F)(F)F)c23)N1CC(F)(F)Cl` [Compound 124, (3R)-4-(2-Chloro-2,2-difluoroethyl)-2,3,4,7-tetrahydro-3-isopropyl-10-(trifluoromethyl)-8H-[1,4]oxazino[2,3-f]quinolin-8-one], the EC50 was 0.002 µM on human AR and above 10 µM on ER. Further, the “AR Agonist CV-1 Cells Efficacy” value on human AR (setting [1]) is listed as 70%. In addition, on human AR (setting [2]), the “AR Antagonist CV-1 Cells Efficacy” value is “na (not active (i.e. efficacy of <20 and potency of >10,000 nM for the cotransfection assay)”. For the same compound, the figures for the IC50 at human AR (setting [3]), against ER and against GR were above 10 µM, above 10 µM and 2.4 µM, respectively.

`CC[C@@H]1COc2c(ccc3[nH]c(=O)cc(C(F)(F)F)c23)N1CC(F)(F)F` [Compound 110, (3R)-3-Ethyl-2,3,4,7-tetrahydro-4-(2,2,2-trifluoroethyl)-10-(trifluoromethyl)-8H-[1,4]oxazino[2,3-f]quinolin-8-one]: at human AR, the “AR Agonist CV-1 Cells Efficacy” value is recorded as 89%; the “AR Antagonist CV-1 Cells Efficacy” value is “na (key: na: not active (i.e. efficacy of <20 and potency of >10,000 nM for the cotransfection assay)”; the 50% effective concentration (EC50) stood at 0.0006 µM; the IC50 was above 10 µM. For the same compound, the IC50 on human AR (read-out: AR-wt Potency Antag) was above 10 µM. Moreover, on ER, the half-maximal effective concentration (EC50) was above 10 µM and the IC50 is above 10 µM.

As usually defined, the EC50 is the concentration that produces a half-maximal response. The low end stands for an effect from little substance, the high end for a need for much substance.
